Source: patent US20110009447A1, “Substituted Benzoic Acid Amides and Use thereof for the Inhibition of Angiogenesis” (priority 2001, published 2011)
Where two headings read alike, the source gives them in different places.

Legend:
VEGFR II (KDR) = VEGFR II (KDR) (Homo sapiens, UniProt P35968); assay: Inhibition of KDR kinase activity (33P-ATP, poly-(Glu4Tyr) phosphocellulose filter assay); assay type: biochemical; conditions: poly-(Glu4Tyr) substrate, 10 minutes at room temperature
Experimental: (§1) • Stock solutions • Stock solution A: 3 mmol of ATP in water, pH 7.0 (−70° C.) • Stock solution B: g-33P-ATP 1 mCi/100 μl • Stock solution C: poly-(Glu4Tyr) 10 mg/ml in water Solution for dilutions • Substrate solvent: 10 mmol of DTT, 10 mmol of manganese chloride, 100 mmol of magnesium chloride • Enzyme solution: 120 mmol of tris/HCl, pH 7.5, 10 μM of sodium vanadium oxide
In a microtiter plate (without protein binding) that tapers to a point, 10 μl of substrate mix (10 μl of volume of ATP stock solution A+25 μCi of g-33P-ATP (about 2.5 μl of stock solution B)+30 μl of poly-(Glu4Tyr) stock solution C+1.21 ml of substrate solvent), 10 μl of inhibitor solution (substances corresponding to the dilutions, 3% DMSO in substrate solvent as a control) and 10 μl of enzyme solution (11.25 μg of enzyme stock solution (KDR or FLT-1 kinase) are added at 4° C. in 1.25 ml of enzyme solution (dilute). It is thoroughly mixed and incubated for 10 minutes at room temperature. Then, 10 μl of stop solution (250 mmol of EDTA, pH 7.0) is added, mixed, and 10 μl of the solution is transferred to a P 81 phosphocellulose filter. Then, it is washed several times in 0.1 M phosphoric acid. The filter paper is dried, coated with Meltilex and measured in a microbeta counter.
The IC50 values are determined from the inhibitor concentration, which is necessary to inhibit the phosphate incorporation to 50% of the uninhibited incorporation after removal of the blank reading (EDTA-stopped reaction).

VEGFR I (FLT) = VEGFR I (FLT) (Homo sapiens, UniProt P17948); assay: Inhibition of FLT-1 kinase activity (33P-ATP, poly-(Glu4Tyr) phosphocellulose filter assay); assay type: biochemical
Experimental: as §1
Then, it is washed several times in 0.1 M phosphoric acid. The filter paper is dried, coated with Meltilex and measured in a microbeta counter.

[1] = FLT-1 kinase, poly-(Glu4Tyr) substrate, 10 minutes at room temperature, read-out: kinase inhibition IC50 VEGFR I (FLT)

VEGFR II (KDR), sequence (P35968 20-1356, species assumed): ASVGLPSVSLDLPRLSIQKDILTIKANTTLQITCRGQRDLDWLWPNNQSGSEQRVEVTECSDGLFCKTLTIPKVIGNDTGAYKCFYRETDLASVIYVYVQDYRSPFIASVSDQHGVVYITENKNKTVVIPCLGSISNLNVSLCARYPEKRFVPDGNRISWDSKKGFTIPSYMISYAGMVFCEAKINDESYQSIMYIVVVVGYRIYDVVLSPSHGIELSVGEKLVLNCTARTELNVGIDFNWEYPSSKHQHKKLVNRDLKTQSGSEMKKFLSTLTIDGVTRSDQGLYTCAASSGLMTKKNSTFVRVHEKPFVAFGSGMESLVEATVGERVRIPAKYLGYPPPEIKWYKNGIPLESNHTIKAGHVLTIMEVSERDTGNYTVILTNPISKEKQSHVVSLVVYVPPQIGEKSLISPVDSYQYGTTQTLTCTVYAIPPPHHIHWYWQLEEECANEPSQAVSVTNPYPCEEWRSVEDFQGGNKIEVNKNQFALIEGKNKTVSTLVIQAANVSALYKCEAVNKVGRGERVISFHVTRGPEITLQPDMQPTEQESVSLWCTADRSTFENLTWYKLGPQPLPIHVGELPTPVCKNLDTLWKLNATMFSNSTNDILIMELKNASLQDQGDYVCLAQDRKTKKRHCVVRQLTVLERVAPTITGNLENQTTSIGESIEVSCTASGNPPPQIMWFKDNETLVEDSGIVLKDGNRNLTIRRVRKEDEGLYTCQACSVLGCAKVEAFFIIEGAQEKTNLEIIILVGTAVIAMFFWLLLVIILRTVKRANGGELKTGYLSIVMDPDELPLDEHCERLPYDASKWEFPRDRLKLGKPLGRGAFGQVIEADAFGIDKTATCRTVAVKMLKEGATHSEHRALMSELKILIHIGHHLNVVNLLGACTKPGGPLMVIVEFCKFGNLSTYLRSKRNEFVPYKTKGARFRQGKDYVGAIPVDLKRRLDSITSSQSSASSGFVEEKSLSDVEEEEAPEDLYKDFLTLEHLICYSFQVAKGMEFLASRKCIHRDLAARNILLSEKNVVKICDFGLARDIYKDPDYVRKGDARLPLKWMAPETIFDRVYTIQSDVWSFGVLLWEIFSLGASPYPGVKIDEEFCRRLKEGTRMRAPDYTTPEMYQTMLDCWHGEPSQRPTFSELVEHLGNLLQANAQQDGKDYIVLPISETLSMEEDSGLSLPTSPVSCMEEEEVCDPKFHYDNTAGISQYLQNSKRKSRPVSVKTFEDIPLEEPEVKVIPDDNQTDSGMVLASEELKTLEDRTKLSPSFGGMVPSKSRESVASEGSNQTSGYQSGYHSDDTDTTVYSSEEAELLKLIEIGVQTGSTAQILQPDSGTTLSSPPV
VEGFR I (FLT), sequence (P17948 27-1338, species assumed): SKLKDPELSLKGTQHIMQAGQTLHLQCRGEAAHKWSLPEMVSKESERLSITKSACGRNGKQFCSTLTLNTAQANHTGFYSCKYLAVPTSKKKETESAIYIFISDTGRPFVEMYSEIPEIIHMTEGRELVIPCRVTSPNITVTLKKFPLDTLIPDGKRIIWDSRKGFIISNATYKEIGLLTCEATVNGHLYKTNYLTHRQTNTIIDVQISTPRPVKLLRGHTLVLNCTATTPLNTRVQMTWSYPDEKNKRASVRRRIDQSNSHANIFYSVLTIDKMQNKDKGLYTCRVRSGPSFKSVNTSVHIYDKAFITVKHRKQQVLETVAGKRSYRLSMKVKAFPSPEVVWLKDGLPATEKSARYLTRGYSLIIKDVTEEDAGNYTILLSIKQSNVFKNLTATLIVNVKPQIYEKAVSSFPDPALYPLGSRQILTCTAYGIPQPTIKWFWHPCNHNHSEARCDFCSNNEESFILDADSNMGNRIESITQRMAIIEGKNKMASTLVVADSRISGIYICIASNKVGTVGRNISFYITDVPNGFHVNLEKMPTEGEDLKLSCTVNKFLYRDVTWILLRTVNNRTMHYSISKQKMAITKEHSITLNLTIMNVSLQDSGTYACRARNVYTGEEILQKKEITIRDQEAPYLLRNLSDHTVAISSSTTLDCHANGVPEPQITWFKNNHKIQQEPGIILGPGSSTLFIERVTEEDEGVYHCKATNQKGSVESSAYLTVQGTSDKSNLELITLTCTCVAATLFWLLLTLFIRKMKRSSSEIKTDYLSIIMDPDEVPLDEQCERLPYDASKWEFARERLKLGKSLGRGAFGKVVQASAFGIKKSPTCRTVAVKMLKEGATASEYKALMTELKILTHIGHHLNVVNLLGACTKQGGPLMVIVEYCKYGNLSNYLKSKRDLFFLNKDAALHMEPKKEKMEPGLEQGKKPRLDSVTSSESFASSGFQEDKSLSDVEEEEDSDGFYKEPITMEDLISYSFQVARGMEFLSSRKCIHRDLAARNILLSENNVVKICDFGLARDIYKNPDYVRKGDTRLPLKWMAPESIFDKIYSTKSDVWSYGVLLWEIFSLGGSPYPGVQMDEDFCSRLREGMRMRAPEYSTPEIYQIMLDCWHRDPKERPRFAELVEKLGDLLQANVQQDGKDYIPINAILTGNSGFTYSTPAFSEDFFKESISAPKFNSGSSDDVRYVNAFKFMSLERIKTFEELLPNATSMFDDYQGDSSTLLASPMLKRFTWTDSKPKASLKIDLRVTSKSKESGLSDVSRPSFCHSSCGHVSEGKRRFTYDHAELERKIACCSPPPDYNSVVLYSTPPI

Row | Compound | IC50 (VEGFR II (KDR)) [µM] | IC50 (VEGFR I (FLT); [1]) [µM] | IC50 (VEGFR I (FLT)) [µM] | melting point [°C]
1 | COc1ccc(CCc2ccccc2C(=O)Nc2cnc3ccccc3c2)cc1 [Example 1.89] | 0.3 | 2 | – | –
2 | CCCc1ccc(NC(=O)c2ccccc2CCc2ccncc2)cc1 [Example 1.1] | 0.2 | – | 0.2 | –
3 | O=C(Nc1ccc(Cl)cc1)c1cccc(C#Cc2cccnc2)c1 [Example 1.54] | 0.5 | 0.05 | – | 179
4 | O=C(NCC1CCCCC1)c1ccccc1CCc1ccncc1 [Example 1.31] | 0.4 | 0.2 | – | 105 to 107

Further lines, results first:

Row | IC50 (VEGFR II (KDR)) [µM] | IC50 (VEGFR I (FLT); [1]) [µM] | IC50 (VEGFR I (FLT)) [µM] | melting point [°C] | Compound
5 | 0.5 | 2 | – | – | COc1ccc(/C=C\c2ccccc2C(=O)Nc2cnc3ccccc3c2)cc1 [Example 1.60]
6 | 0.2 | 0.2 | – | 137.9 | COc1ccc(/C=C\c2ccccc2C(=O)Nc2ccc(Cl)cc2)cc1 [Example 1.57]
7 | 5 | – | – | 113.7 | CCCc1ccc(NC(=O)c2ccccc2CCc2ccc(OC)cc2)cc1 [Example 1.67]
8 | 0.3 | 0.2 | – | – | CCCCCCCNC(=O)c1ccccc1/C=C\c1ccc(OC)cc1 [Example 1.64]
